Results on 62 compounds are retold here after a melting point compilation (Tetko et al.; mined from patent text by program, amines drawn as free bases though some values may be those of a salt).

The structures appear in SMILES notation. A value given as a limit tells only on which side of the number the result lay.

As a reminder, the melting point is the temperature of the solid-liquid transition.

The compound `CC(=O)N[C@@H]1[C@@H](CCO)CC(C(=O)O)=C[C@H]1OC(C)C` registered a melting point of 114 to 115 °C.
For the compound `CC1(C)CCC(C)(C)c2c(OCc3ccc(F)cc3)cc(C(=O)/C=C/c3ccc(C(=O)O)cc3)cc21`, the melting point was determined as 241 °C.
`[O-][N+](O)=CCN=Nc1ccccc1` registered a melting point of 95 to 97 °C.
For `O=CC=CC(=C(c1ccc(F)cc1)c1ccc(F)cc1)n1nnnc1-c1ccccc1` the value was 198 to 200 °C; for `CC(C)(C)c1cc(C2SCC(=O)N2CCC(=O)O)cc(C(C)(C)C)c1O` (configuration not stated), 164 to 165 °C.
Under `CCCCCCCCCCCCCCCCS(=O)(=O)c1ccc(-n2c(=O)cc(N)n2C(=O)OCC)cc1` stands 92 °C; under `NC(=O)C(OCc1ccc(Cl)cc1)(C(F)(F)F)C(F)(F)F`, 94 to 95 °C; under `Cn1cc(C(=O)O)c(=O)c2cc3cc(F)c(N4CCN(O)CC4)c(F)c3nc21`, 285 to 288 °C.
For the compound `CC1NC(=O)NN=C1c1ccc(N2CCCC2=O)cc1` (configuration not stated), the melting point was in the range of 278 to 280 °C.
For `Clc1ccc2[nH]cc(C3=CCNCC3)c2c1` the value was 177 °C.
Under `Cc1[nH]c2ccccc2c1/C=C/C(=O)c1ccncc1` stands 268 to 272 °C; under `Cn1ncc(/C=C/C(=O)Nc2ccc(CC(C)(C)O)cc2)c1-c1ccc(F)cc1`, 188 to 189 °C.
Under `CN(C)CNS(=O)(=O)c1ccc(-c2cnn(Cc3c(F)c(F)c(F)c(F)c3F)c(=O)c2-c2ccc(F)cc2)cc1` stands 194 to 196 °C.
Compound `CN1CCN(CC2CCCCN2CC(=O)N2c3ccccc3NC(=O)c3ccccc32)CC1` (configuration not stated) came in with a melting point of 200 to 202 °C.
Compound `CN(C)C=NC(=O)c1cc2c(cn1)[nH]c1ccccc12` came in with a melting point of 254 to 257 °C.
For `N#Cc1cc(NC(=O)c2cc3ccccc3o2)ccc1OC1CCN(Cc2ccccc2)CC1` the value was 175 °C; for `COc1cccc2cc(C(=O)O)oc(=O)c12`, 251 to 253 °C.
Under `O=C(O)C(CC1CCCC1)c1ccc(Cl)c([N+](=O)[O-])c1` (configuration not stated) stands 112 to 115 °C; under `Cc1c(C(=O)Nc2ccc(N3CCC(N4CCOCC4)CC3)c(Br)c2)cnn1-c1ccc(C(F)(F)F)cc1`, 220 to 230 °C.
Under `Cc1cc(O)ccc1-c1nc2cc(O)cc(Br)c2o1` stands 120 to 135 °C; under `CN(C)c1ccccc1CC(=O)N1C[C@@H]2C(=O)CCC(c3ccccc3)(c3ccccc3)[C@@H]2C1`, 150 °C; under `NCC1(O)C2CC3CC(C2)CC1C3` (configuration not stated), 154 to 156 °C.
In the case of `CC(C)(C)C(NC(=O)Cc1ccc(Cl)cc1)NC(=NC#N)Nc1cccc2ncccc12` (configuration not stated), the melting point was 195 to 196 °C.
For `CCOc1ccc(C=CC(=O)c2c(OC)cc(OC)cc2OC(=O)CC)cc1`, the melting point amounted to 105 °C.
In turn, `N#Cc1ccc2cc(-c3ccc(O)cc3)oc2c1` showed a melting point of 272 to 274 °C.
Under `Cc1ccccc1-n1c(-c2sc(NC(=O)c3ccccc3)nc2-c2ccccc2)nc2ccccc2c1=O` stands greater than 275 °C; under `Cc1cc(-c2nnc3c4ccccc4c(OCc4nncn4C)nn23)no1`, 261 to 263 °C; under `Cc1ccc(-c2nc(N)n3nc(-c4ccco4)nc3n2)cc1`, greater than 275 °C.
For `O=C(Nc1cccc(O)c1)C(F)(F)F`, the melting point is 133 to 135 °C.
Turning to `CC(CO)N1c2ccccc2Sc2ccc(C#N)cc21` (racemic), the melting point was found to be 123 °C.
For `C=C1CCC(c2ccc(N3CC(COC)OC3=O)cc2)CC1` (racemic) the value was 63 to 65 °C; for `CN(C)Cc1nc(N)nc(N)c1-c1ccc(Cl)cc1Cl`, 170 to 172 °C.
Under `CC(=O)N(Cc1ccc2c(c1)OCO2)c1ccc(Oc2ccccc2)cc1` stands 75 to 76 °C.
For `Cc1nc(O)sc1C(=O)CBr` the value was 162 °C; for `Cc1[nH]c(-c2ccccc2)c2nc[nH]c(=O)c12`, 295 to 296 °C.
Consider `CC(C)(C)OC(=O)NC(CC(=O)NC1CC1)C1CC1` (configuration not stated), for which the melting point lay in the range of 166 to 168 °C.
For `CCOC(=O)c1ccccc1N(CC(=O)OC(C)(C)C)C(=O)CN1C(=O)c2ccccc2C1=O` the value was 127 °C.
Under `CCCC(=NO)c1ccc(OCOC)cc1` stands 74 to 76 °C; under `C[N+]1([O-])CC(c2ccccn2)C(=O)c2cc(Cl)ccc21` (configuration not stated), 135 to 137 °C.
As to `O=C(Cc1c(C(=O)c2ccccc2)[nH]c2cc(Cl)ccc12)NCCO`, the melting point is 178 to 180 °C.
As to `CN(C)C(=S)C(O)c1ccc(OCc2ccccc2)cc1` (configuration not stated), the melting point was in the range of 104 to 107 °C.
Under `Cc1cc(O)nc(SCC(N)=O)n1` stands 238 to 240 °C; under `Cc1nc(C)c(Cl)c(NCc2nccc(SCCCSCC3CN(C)C(=O)O3)c2C)n1` (configuration not stated), 121 °C.
For `O=C(Nc1c([N+](=O)[O-])ccc2c3c(oc12)CCCC3)c1c(Cl)cccc1Cl` the value was 246 to 248 °C; for `O=C1N(N2CCCCC2)c2ccccc2C1(Cc1ccncc1)Cc1ccncc1`, 140 to 143 °C; for `CC(=O)c1ccc(Nc2c3ccccc3nc3occc23)cc1`, 220 to 221 °C.
For `CC(C)N1C(=O)c2ccccc2N(C(=O)c2cc(Oc3ccc(C(F)(F)F)cc3Cl)ccc2[N+](=O)[O-])S1(=O)=O` the value was 125 to 128 °C; for `COC(=O)CC(=O)Nc1cccc(COc2ccc(C(C)=O)c(F)c2)c1`, 102 to 104 °C.
In turn, `NC(=O)CCC(=O)Nc1c(C(=O)c2ccccc2)[nH]c2cc(Cl)ccc12` returned a melting point of 258 to 263 °C.
Under `CCOC(=O)C(=Cc1cccn2c(Br)c(C)nc12)N=[N+]=[N-]` stands 108 to 110 °C.
In the case of `CNC(=O)OCc1c(COC(=O)NC)c2n(c1C)-c1ccccc1C2`, the melting point lay within 86 to 88 °C.
`O=C(O)CCCCCc1nn(-c2ccc([N+](=O)[O-])cc2)c2c1CCC2` gave a melting point of 131 to 132 °C.
In the case of `Cn1c(C(F)(F)F)cc(=O)n(-c2cc(OCC#CCOc3ccccc3)c(Cl)cc2F)c1=O`, the melting point was in the range of 142 to 144 °C.
Compound `O=C(c1ccccc1)c1ccc2c(c1)C1(c3ccccc3-2)c2ccccc2-c2ccc(C(=O)c3ccccc3)cc21` gave a melting point of 260 to 261 °C.
As for `Cn1nnnc1NCC(O)COc1cccc(CN2CCCCC2)c1` (configuration not stated), the melting point is 156 to 157 °C.
`CCOc1ccc2c(c1)n(C1CCOCC1)c(=O)n2Cc1ccc(NC(=O)N(CC)CC)cc1OC` displayed a melting point of 168 °C.
Compound `O=C(CCC(=O)N(CCCOc1ccc(C(=O)O)cc1)c1ccc(Cl)cc1)Nc1ccc(Cl)cc1` gave a melting point of 197 to 201 °C.
For `COC(=O)C(C)Oc1ccc(Sc2cc(-n3nc(C)n(C(F)F)c3=O)c(Cl)cc2Cl)cc1` (configuration not stated) the value was 100 to 101 °C.
Compound `O=C(CCl)Nc1cc(Oc2ncccc2C(F)(F)F)c(Cl)cc1F` showed a melting point of 146 to 149 °C.
Consider `CC(C)CCSC1CC(CO)OC1n1ccc(=O)[nH]c1=O` (configuration not stated), for which the melting point lay within 131 to 133 °C.
`O=Cc1ccc(OCC=Cc2ccccc2)cc1` registered a melting point of 89.5 to 90.5 °C.
Under `O=C1CCc2ccc(OCCCCBr)cc2N1` stands 106 to 109 °C.
